The source of these data is patent US11066396B2 (priority 2016, dated 2021).

The target of assay [1] is HDAC1 (Homo sapiens (Human), UniProt Q13547). The following applies: read-out: HDAC1 IC50.
For assay [2], the target named is HDAC5 (Homo sapiens (Human), UniProt Q9UQL6). The following applies: read-out: HDAC5 IC50.
The target of assay [3] is HDAC8 (Homo sapiens (Human), UniProt Q9BY41). The following applies: read-out: HDAC8 IC50.

One may read the IC50 as the concentration that inhibits the measured activity by half.

Sequence of HDAC5 (Q9UQL6 656-1122): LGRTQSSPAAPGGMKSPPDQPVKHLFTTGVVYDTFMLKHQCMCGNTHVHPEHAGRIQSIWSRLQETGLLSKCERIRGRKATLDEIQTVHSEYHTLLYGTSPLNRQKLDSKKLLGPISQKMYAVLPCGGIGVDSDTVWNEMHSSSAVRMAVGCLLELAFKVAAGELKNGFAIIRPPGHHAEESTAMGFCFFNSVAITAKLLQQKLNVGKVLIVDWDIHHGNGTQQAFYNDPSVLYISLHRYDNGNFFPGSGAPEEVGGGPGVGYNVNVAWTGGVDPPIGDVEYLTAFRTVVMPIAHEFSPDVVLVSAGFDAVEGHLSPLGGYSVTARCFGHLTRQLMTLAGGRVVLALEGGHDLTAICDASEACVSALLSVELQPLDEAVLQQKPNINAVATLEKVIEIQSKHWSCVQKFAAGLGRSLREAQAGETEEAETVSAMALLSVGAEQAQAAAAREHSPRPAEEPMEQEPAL
Sequence of HDAC1 (Q13547 whole entry): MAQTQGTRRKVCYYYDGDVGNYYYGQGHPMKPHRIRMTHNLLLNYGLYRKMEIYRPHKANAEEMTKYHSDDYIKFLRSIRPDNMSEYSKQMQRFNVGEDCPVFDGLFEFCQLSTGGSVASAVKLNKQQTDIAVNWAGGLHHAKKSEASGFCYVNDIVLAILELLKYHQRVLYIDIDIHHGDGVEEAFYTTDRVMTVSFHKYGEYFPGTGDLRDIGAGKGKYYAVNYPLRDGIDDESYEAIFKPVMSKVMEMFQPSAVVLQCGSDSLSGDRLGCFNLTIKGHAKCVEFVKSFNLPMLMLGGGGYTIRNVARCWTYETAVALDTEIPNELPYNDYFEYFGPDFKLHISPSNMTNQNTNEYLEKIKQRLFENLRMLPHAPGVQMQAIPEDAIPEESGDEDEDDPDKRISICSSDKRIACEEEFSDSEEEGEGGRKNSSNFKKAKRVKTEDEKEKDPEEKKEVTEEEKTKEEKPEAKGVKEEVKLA
Sequence of HDAC8 (Q9BY41 whole entry): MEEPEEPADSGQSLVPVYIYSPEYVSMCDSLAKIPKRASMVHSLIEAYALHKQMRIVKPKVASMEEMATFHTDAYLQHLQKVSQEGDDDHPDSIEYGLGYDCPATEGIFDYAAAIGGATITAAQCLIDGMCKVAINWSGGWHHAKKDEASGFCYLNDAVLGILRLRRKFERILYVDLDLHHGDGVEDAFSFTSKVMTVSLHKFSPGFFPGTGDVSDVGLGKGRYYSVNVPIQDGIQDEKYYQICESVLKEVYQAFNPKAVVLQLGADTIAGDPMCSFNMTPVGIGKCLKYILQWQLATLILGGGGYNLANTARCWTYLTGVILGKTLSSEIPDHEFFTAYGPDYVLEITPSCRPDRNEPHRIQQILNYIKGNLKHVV

In the case of `Fc1cc(COc2[nH]nc3c2COCC3)ccc1-c1noc(C(F)(F)F)n1` [Example 249, 3-({3-fluoro-4-[5-(trifluoromethyl)-1,2,4-oxadiazol-3-yl]phenyl}methoxy)-2,4,6,7-tetrahydropyrano[4,3-c]pyrazole], the figures for the IC50 in assay [1], in assay [2] and in assay [3] were 3.1 µM, 0.074 µM and 2.3 µM, respectively.

Regarding `Fc1ccccc1OCc1ccc(-c2noc(C(F)(F)F)n2)cn1` [Example 251, 2-[(2-fluorophenoxy)methyl]-5-[5-(trifluoromethyl)-1,2,4-oxadiazol-3-yl]pyridine], the IC50 was found to be 1.2 µM in assay [1], 0.19 µM in assay [2] and 3.5 µM in assay [3].

Regarding `Nc1cccnc1COCc1ccc(-c2noc(C(F)(F)F)n2)c(F)c1` [Example 252, 2-[({3-fluoro-4-[5-(trifluoromethyl)-1,2,4-oxadiazol-3-yl]phenyl}methoxy)methyl]pyridin-3-amine], the IC50 in assay [1] came out at 2.6 µM; in assay [2] it was 0.12 µM; in assay [3] it was 4.5 µM.

Consider `Cc1ccc(NCc2ccc(-c3noc(C(F)(F)F)n3)c(F)c2)cn1` [Example 253, N-({3-fluoro-4-[5-(trifluoromethyl)-1,2,4-oxadiazol-3-yl]phenyl}methyl)-6-methylpyridin-3-amine], for which the IC50 in assay [1] worked out at 1.7 µM; in assay [2] it was 0.064 µM; in assay [3], 3.9 µM.

Consider `Fc1cc(CNc2ccc3ccncc3c2)ccc1-c1noc(C(F)(F)F)n1` [Example 254, N-({3-fluoro-4-[5-(trifluoromethyl)-1,2,4-oxadiazol-3-yl]phenyl}methyl)isoquinolin-7-amine], for which the IC50 amounted to 1.6 µM in assay [1], 0.14 µM in assay [2] and 45 µM in assay [3].

As to `Cn1cnc2cc(COc3nccc(-c4noc(C(F)(F)F)n4)c3Cl)ccc21` [Example 255, 5-[({3-chloro-4-[5-(trifluoromethyl)-1,2,4-oxadiazol-3-yl]pyridin-2-yl}oxy)methyl]-1-methyl-1H-benzimidazole], the IC50 in assay [1] amounted to 1.7 µM; in assay [2] it was 0.38 µM; in assay [3], 1.6 µM.

On to `CN(C(=O)[C@@H]1CCC(=O)N1c1ccc(-c2noc(C(F)(F)F)n2)c(F)c1)C(C)(C)C` [Example 340, N-tert-butyl-1-{3-fluoro-4-[5-(trifluoromethyl)-1,2,4-oxadiazol-3-yl]phenyl}-N-methyl-5-oxo-L-prolinamide], for which the values for the IC50 in assay [1], in assay [2] and in assay [3] were 31 µM, 1.8 µM and 27 µM, respectively.

Regarding `CC1(C)CCCCN1C(=O)[C@@H]1CCC(=O)N1c1ccc(-c2noc(C(F)(F)F)n2)c(F)c1` [Example 343, (5S)-5-[(2,2-dimethylpiperidin-1-yl)carbonyl]-1-{3-fluoro-4-[5-(trifluoromethyl)-1,2,4-oxadiazol-3-yl]phenyl}pyrrolidin-2-one], the IC50 worked out at 24 µM in assay [1], 3 µM in assay [2] and 25 µM in assay [3].

For `O=C(C1CCS(=O)(=O)CC1)N(Cc1ccc(-c2noc(C(F)(F)F)n2)cn1)c1cccc(C(F)(F)F)c1` [Example 456, N-({5-[5-(trifluoromethyl)-1,2,4-oxadiazol-3-yl]pyridin-2-yl}methyl)-N-[3-(trifluoromethyl)phenyl]tetrahydro-2H-thiopyran-4-carboxamide 1,1-dioxide], the IC50 in assay [1] amounted to 0.36 µM; in assay [2], 2.7 µM; in assay [3] it was 2.5 µM.

As for `O=C1COc2ccccc2N1Cc1ccc(-c2noc(C(F)(F)F)n2)cn1` [Example 462, 4-({5-[5-(trifluoromethyl)-1,2,4-oxadiazol-3-yl]pyridin-2-yl}methyl)-2H-1,4-benzoxazin-3(4H)-one], the IC50 is 0.15 µM in assay [1], 0.0096 µM in assay [2] and 2.4 µM in assay [3].

Take `Cc1nc2ccc(F)cc2n1Cc1ccc(-c2noc(C(F)(F)F)n2)cn1` [Example 465, 6-fluoro-2-methyl-1-({5-[5-(trifluoromethyl)-1,2,4-oxadiazol-3-yl]pyridin-2-yl}methyl)-1H-benzimidazole]: the results for the IC50 in assay [1], in assay [2] and in assay [3] were 0.72 µM, 0.036 µM and 5.6 µM, respectively.

Regarding `O=c1[nH]c2ccccc2n(Cc2ccc(-c3noc(C(F)(F)F)n3)cn2)c1=O` [Example 469, 1-({5-[5-(trifluoromethyl)-1,2,4-oxadiazol-3-yl]pyridin-2-yl}methyl)-1,4-dihydroquinoxaline-2,3-dione], the IC50 in assay [1] stood at 0.086 µM; in assay [2] it was 0.022 µM; in assay [3], 1.4 µM.

For the compound `CC(C)(C)OC(=O)[C@@H]1COCC(=O)N1c1ccc(-c2noc(C(F)(F)F)n2)c(F)c1` [Example 471, tert-butyl (3S)-4-{3-fluoro-4-[5-(trifluoromethyl)-1,2,4-oxadiazol-3-yl]phenyl}-5-oxomorpholine-3-carboxylate], the IC50 turned out to be 0.87 µM in assay [1], 0.054 µM in assay [2] and 3.8 µM in assay [3].

In the case of `COCc1cccc(CCOc2cc(-c3noc(C(F)(F)F)n3)ccn2)c1` [Example 476, 2-{2-[3-(methoxymethyl)phenyl]ethoxy}-4-[5-(trifluoromethyl)-1,2,4-oxadiazol-3-yl]pyridine], the IC50 in assay [1] stood at 1.9 µM; in assay [2], 0.78 µM; in assay [3], 3 µM.

As to `O=C(C1CCS(=O)(=O)CC1)N(Cc1ccc(-c2noc(C(F)(F)F)n2)c(F)c1)c1cccc(C(F)(F)F)c1` [Example 489, N-({3-fluoro-4-[5-(trifluoromethyl)-1,2,4-oxadiazol-3-yl]phenyl}methyl)-1,1-dioxo-N-[3-(trifluoromethyl)phenyl]-llambda~6~-thiane-4-carboxamide], the IC50 in assay [1] was 0.95 µM; in assay [2], 0.76 µM; in assay [3], 6.9 µM.

On to `O=C(C1CCS(=O)(=O)CC1)N(Cc1ccc(-c2noc(C(F)(F)F)n2)cc1F)c1cccc(C(F)(F)F)c1` [Example 490, N-({2-fluoro-4-[5-(trifluoromethyl)-1,2,4-oxadiazol-3-yl]phenyl}methyl)-1,1-dioxo-N-[3-(trifluoromethyl)phenyl]-llambda~6~-thiane-4-carboxamide], for which the IC50 was found to be 0.5 µM in assay [1], 0.52 µM in assay [2] and 3.4 µM in assay [3].
